Laboratory results reported in US20240360194A1, “New Peptides as Potent and Selective GIP Receptor Agonists” (Sanofi, priority 2021, published 2024).
≈ marks a conversion by molar mass, not a printed value. Numbered stars: 1 amine (or outer) side, 2 acyl side, 3 side chain; on linkers, the order of the positions; unused ones are H or OH. Square brackets hold non-standard residues; d marks the D form. Side chains are listed from the residue outwards. Peptide text beside a SMILES is read from it. * marks the point of attachment. C18 diacid = O=C(O)CCCCCCCCCCCCCCCCC(=O)*; γGlu = O=C(O)[C@H](CCC(=O)[*:2])N[*:1]; AEEA = NCCOCCOCC(=O)O; Aib = CC(C)(N)C(=O)O

Tests used:
[1] = Pharmacokinetic evaluation in mice; assay type: in vivo, female C57Bl/6 mice; details: in vivo
Protocol: (§1) Compounds were administered in a suitable buffer system, e.g. PBS buffer solution at pH7.4 or DPBS solution at concentrations of 0.05, 0.1, 0.5 or 1 mg/ml depending on dose, species and administration volume. Female C57Bl/6 mice were dosed 0.25 mg/kg, 0.5 mg/kg or 1 mg/kg intravenously (i.v.) or subcutaneously (s.c.). The mice were sacrificed, and blood samples were collected after 0.08, 0.25, 0.5, 1, 2, 4, 8, 24, 32, and 48 h post i.v. application and 0.25, 0.5, 1, 2, 4, 8, 24, 32, and 48 h post s.c. application, respectively. Plasma samples were analysed after protein precipitation via liquid chromatography mass spectrometry (LC/MS). PK parameters and half-life were calculated using Phoenix-WinNonlin 8.1 using a non-compartmental model and linear trapezoidal interpolation calculation. Pharmacokinetic profiles were determined as described in Methods.

[2] = Solubility assessment (UHPLC-UV of supernatant, target 10 mg/ml); assay type: physicochemical
In short: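 Peptides at 10 mg/ml (purity-corrected) in 100 mM phosphate pH 7.4, optionally with 2.7 mg/ml m-cresol; gentle agitation 1 h, then 5° C. overnight (24 h). Supernatant after 15 min centrifugation at 2500 RCF quantified by UHPLC-UV, with sequence-based extinction coefficients.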

[3] = Pharmacokinetic evaluation in rats; assay type: in vivo; details: male, SD, rat, in vivo
Protocol: as §1, with “Male SD rats” for “Female C57Bl/6 mice”, “Blood” for “The mice were sacrificed, and blood”

[4] = molecular target: T1, human GLP-1 receptor (hGLP-1R) (Homo sapiens, UniProt P43220); experiment: Binding assay, displacement of [125I]GLP-1 from HEK-293 membranes over-expressing GLP-1R (SPA); details: [125I]GLP-1 displacement
T1 sequence (P43220 24-463): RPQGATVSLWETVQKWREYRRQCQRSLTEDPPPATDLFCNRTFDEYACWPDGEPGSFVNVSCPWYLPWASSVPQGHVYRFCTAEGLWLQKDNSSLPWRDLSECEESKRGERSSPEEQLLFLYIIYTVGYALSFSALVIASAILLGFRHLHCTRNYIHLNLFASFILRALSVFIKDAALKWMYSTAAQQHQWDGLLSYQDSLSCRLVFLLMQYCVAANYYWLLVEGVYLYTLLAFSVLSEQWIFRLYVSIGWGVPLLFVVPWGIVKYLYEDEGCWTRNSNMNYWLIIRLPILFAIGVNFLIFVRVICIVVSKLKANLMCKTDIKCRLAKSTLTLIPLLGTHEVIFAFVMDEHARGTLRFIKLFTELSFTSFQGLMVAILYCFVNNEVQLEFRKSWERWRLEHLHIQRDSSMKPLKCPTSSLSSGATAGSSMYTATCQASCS
Protocol: (1) Preparation of Membranes from HEK-293 Cells Over-Expressing GIPR or GLP-1R
HEK-293 cells recombinantly over-expressing GIPR or GLP-1R were grown to 50% confluency, washed with warm 1×PBS (Gibco) and detached in HEPES/EDTA-buffer (100 mM HEPES pH 7.5, 5 mM EDTA). Cells were harvested by centrifugation at 4° C. and 3000×g and the pellets were stored at −80° C. until further processing.
After thawing on ice, pellets were resuspended in HEPES/EDTA-buffer and homogenized on ice for 1 min using Ultra-Turray T25. After subsequent sonification the cell debris was removed by centrifugation at 1000×g and 4° C. Supernatants were then ultra-centrifuged at 100000×g and 4° C. under vacuum for 30 min. Pellets were resuspended in HEPES/EDTA/NaCl-buffer (20 mM HEPES, 1 mM EDTA, 150 mM NaCl; add 1 Complete Mini Protease inhibitor cocktail to 10 ml buffer) and protein content was determined via BCA-Protein assay.
(2) Measurement of Binding Activity of Test Compounds to Human GIPR or GLP-1R

[5] = molecular target: T1, human GLP-1 receptor (hGLP-1R); experiment: In vitro cellular cAMP assay for GLP-1 receptor efficacy (HEK-293 cell line over-expressing receptor); assay type: cell-based; details: HEK-293, 0.1% BSA
[6] = Chemical stability assessment (UHPLC-UV purity loss on storage in solution); assay type: physicochemical; details: Chemical stability buffer system A: 20 mM phosphate buffer pH 7.4; ~300 μM
Protocol: Purity of a peptide batch was determined through UHPLC/MS prior to chemical stability measurement. The target concentration was 300 μM pure compound. Solutions from solid samples were prepared in the following buffer systems with a concentration of ˜300 μM compound based on the previously determined % purity: • Chemical stability buffer system A) 20 mM phosphate buffer pH 7.4, • Chemical stability buffer system B) 8 mM phosphate buffer pH 7.4, 14 mg/ml propylene glycol, 5.5 mg/ml phenol • Chemical stability buffer system C) 100 mM phosphate buffer pH 7.4, 2.7 mg/ml m-cresol
Prepared solutions were filtered through […] pore size and filled into sterilized glass containers under laminar flow conditions.
Glass containers were stored for 28 days at 5 and 40° C. After this time, the samples were centrifuged for 15 min at 2500 RCF. Then 1.5 μl of the undiluted supernatant were analysed with UHPLC-UV.
The chemical stability was rated through the relative loss of purity calculated by the equation: […]
The purity is calculated as
The analytical methods used were Analytical UHPLC Method B or C.
Peptide samples were prepared in Chemical stability buffer system A or B and stability was assessed as described in Methods.

[7] = female, C57Bl/6, mouse, iv, 0.25 mg/kg
[8] = female, C57Bl/6, mouse, sc, 0.5 mg/kg

Row | Compound | AUC(0-t) ([3]; iv, 0.25 mg/kg) [ng·h/mL] | Cmax ([3]; iv, 0.25 mg/kg) [ng/mL] | clearance ([3]; iv, 0.25 mg/kg) [mL/min/kg] | half-life ([3]; iv, 0.25 mg/kg) [h] | AUC(0-t) ([3]; sc, 0.5 mg/kg) [ng·h/mL] | Cmax ([3]; sc, 0.5 mg/kg) [ng/mL] | bioavailability ([3]; sc, 0.5 mg/kg) [%] | half-life ([3]; sc, 0.5 mg/kg) [h] | EC50 [5] [nM] | also measured
1 | CC[C@H](C)[C@H](NC(=O)[C@H](CCCNC(=N)N)NC(=O)[C@H](CC(=O)O)NC(=O)[C@H](CCCCNC(=O)COCCOCCNC(=O)COCCOCCNC(=O)CC[C@H](NC(=O)CCCCCCCCCCCCCCCCC(=O)O)C(=O)O)NC(=O)C(C)(C)NC(=O)[C@@H](NC(=O)[C@H](CO)NC(=O)[C@H](CC(C)C)NC(=O)[C@H](CC(=O)O)NC(=O)[C@H](CO)NC(=O)[C@@H](NC(=O)[C@@](C)(CC)NC(=O)[C@@H](NC(=O)CNC(=O)[C@H](CCC(=O)O)NC(=O)C(C)(C)NC(=O)[C@@H](N)Cc1ccc(O)cc1)[C@@H](C)O)[C@@H](C)CC)[C@@H](C)CC)C(=O)N[C@@H](Cc1c[nH]cn1)C(=O)N[C@@H](CCC(N)=O)C(=O)NC(C)(C)C(=O)N[C@@H](CCC(=O)O)C(=O)N[C@@H](Cc1ccccc1)C(=O)N[C@H](C(=O)N[C@@H](CCC(=O)O)C(=O)N[C@@H](Cc1c[nH]c2ccccc12)C(=O)N[C@@H](CC(C)C)C(=O)N[C@@H](CC(C)C)C(=O)N[C@@H](C)C(=O)N[C@@H](CCC(N)=O)C(=O)N[C@@H](CCCNC(=N)N)C(=O)NCC(N)=O)[C@@H](C)CC [SEQ ID NO: 16, H2N-Y-Aib-E-G-T-Iva-I-S-D-L-S-I-Aib-K[{AEEA}2-gGlu-C18OH]-D-R-I-H-Q-Aib-E-F-I-E-W-L-L-A-Q-R-G-NH2] | 41500 | 7050 | 0.0957 | 11.5 | 43900 | 1720 | 55 | 10.8 | > 10 | AUC(0-t) [1, 7]: 27300 ng·h/mL; Cmax [1, 7]: 5040 ng/mL; clearance [1, 7]: 0.151 mL/min/kg; half-life [1, 7]: 7.33 h; AUC(0-t) [1, 8]: 82500 ng·h/mL; Cmax [1, 8]: 4590 ng/mL; half-life [1, 8]: 5.69 h; F ([1]; mouse, sc, 0.5 mg/kg): 150%; solubility ([2]; pH 7.4, Soluble amount): 5400 µg/mL (≈ 1260 µM); IC50 [4]: 174 nM
2 | CC[C@H](C)[C@H](NC(=O)[C@H](CCCNC(=N)N)NC(=O)[C@H](CCC(=O)O)NC(=O)[C@H](CCCCNC(=O)COCCOCCNC(=O)COCCOCCNC(=O)CC[C@H](NC(=O)CCCCCCCCCCCCCCCCC(=O)O)C(=O)O)NC(=O)C(C)(C)NC(=O)[C@@H](NC(=O)[C@H](CO)NC(=O)[C@H](CC(C)C)NC(=O)[C@H](CC(=O)O)NC(=O)[C@H](CO)NC(=O)[C@@H](NC(=O)[C@H](Cc1ccccc1)NC(=O)[C@@H](NC(=O)CNC(=O)[C@H](CCC(=O)O)NC(=O)C(C)(C)NC(=O)[C@@H](N)Cc1ccc(O)cc1)[C@@H](C)O)[C@@H](C)CC)[C@@H](C)CC)C(=O)N[C@@H](Cc1c[nH]cn1)C(=O)N[C@@H](CCC(N)=O)C(=O)NC(C)(C)C(=O)N[C@@H](CCC(=O)O)C(=O)N[C@@H](Cc1ccccc1)C(=O)N[C@H](C(=O)N[C@@H](CCC(=O)O)C(=O)N[C@@H](Cc1c[nH]c2ccccc12)C(=O)N[C@@H](CC(C)C)C(=O)N[C@@H](CC(C)C)C(=O)N[C@@H](C)C(=O)N[C@@H](CCC(N)=O)C(=O)NCC(=O)N1CCC[C@H]1C(=O)N[C@@H](CO)C(=O)N[C@@H](CO)C(=O)NCC(=O)N[C@@H](C)C(=O)N1CCC[C@H]1C(=O)N1CCC[C@H]1C(=O)N1CCC[C@H]1C(=O)N[C@@H](CO)C(N)=O)[C@@H](C)CC [SEQ ID NO: 21, H2N-Y-Aib-E-G-T-F-I-S-D-L-S-I-Aib-K[{AEEA}2-gGlu-C18OH]-E-R-I-H-Q-Aib-E-F-I-E-W-L-L-A-Q-G-P-S-S-G-A-P-P-P-S-NH2] (H-Y[Aib]EGTFISDLSI[Aib]K([AEEA-AEEA-γGlu-C18 diacid])ERIHQ[Aib]EFIEWLLAQGPSSGAPPPS-NH2) | 25800 | 1020 | 0.151 | 12.9 | 33900 | 1020 | 68 | 12.1 | > 10 | Soluble amount ([2]; 24 h, pH 7.4): >10.0 mg/mL; solubility at 24 h ([2]; pH 7.4, Soluble amount): 10100 µg/mL (≈ 2030 µM)
3 | CC[C@H](C)[C@H](NC(=O)[C@H](Cc1ccccc1)NC(=O)[C@H](CCC(=O)O)NC(=O)C(C)(C)NC(=O)[C@H](CCC(N)=O)NC(=O)[C@H](Cc1c[nH]cn1)NC(=O)C(C)(C)NC(=O)[C@H](CCCNC(=N)N)NC(=O)[C@H](CC(=O)O)NC(=O)[C@H](CCCCNC(=O)COCCOCCNC(=O)COCCOCCNC(=O)CC[C@H](NC(=O)CCCCCCCCCCCCCCCCC(=O)O)C(=O)O)NC(=O)C(C)(C)NC(=O)[C@@H](NC(=O)[C@H](CO)NC(=O)[C@H](CC(C)C)NC(=O)[C@H](CC(=O)O)NC(=O)[C@H](CO)NC(=O)[C@@H](NC(=O)[C@H](Cc1ccccc1)NC(=O)[C@@H](NC(=O)CNC(=O)[C@H](CCC(=O)O)NC(=O)C(C)(C)NC(=O)[C@@H](N)Cc1ccc(O)cc1)[C@@H](C)O)[C@@H](C)CC)[C@@H](C)CC)C(=O)N[C@@H](CCC(=O)O)C(=O)N[C@@H](Cc1c[nH]c2ccccc12)C(=O)N[C@@H](CC(C)C)C(=O)N[C@@H](CC(C)C)C(=O)N[C@@H](C)C(=O)N[C@@H](CCC(N)=O)C(=O)N[C@@H](CCCNC(=N)N)C(=O)N1CCC[C@H]1C(=O)N[C@@H](CO)C(=O)N[C@@H](CO)C(=O)NCC(=O)N[C@@H](C)C(=O)N1CCC[C@H]1C(=O)N1CCC[C@H]1C(=O)N1CCC[C@H]1C(=O)N[C@@H](CO)C(N)=O [SEQ ID NO: 22, H2N-Y-Aib-E-G-T-F-I-S-D-L-S-I-Aib-K[{AEEA}2-gGlu-C18OH]-D-R-Aib-H-Q-Aib-E-F-I-E-W-L-L-A-Q-R-P-S-S-G-A-P-P-P-S-NH2] (H-Y[Aib]EGTFISDLSI[Aib]K([AEEA-AEEA-γGlu-C18 diacid])DR[Aib]HQ[Aib]EFIEWLLAQRPSSGAPPPS-NH2) | 40200 | 6030 | 0.0955 | 13.6 | 49900 | 1320 | 69 | 15.5 | > 10 | Relative purity loss over 28 days at 40° C. [6]: 6.1%
